# Like-named read-outs stand apart in the source and are kept apart here.
# Assays:
# [1] = test system: Primary CLL cells; experiment: AnnexinV/PI assay on primary CLL cells; format: cell-based, human; settings: for EC50: Homo sapiens, CLL cell, read-out: AnnexinV/PI assay EC50 Primary CLL; for selectivity for CLL cells compared to PBMCs: FIG. 3, sensitivity of CLL cells vs PBMCs
# Method: (§1) PBMCs or CLL cells (5*10^6 cells/ml) were incubated for 24 h with different compounds at concentrations from 0.01 to 100 μM. Cell survival was normalized to DMSO control [vehicle]. See Example 1.
# (§2) Primary CLL or peripheral blood mononuclear cells of healthy donors (5*10^6/ml) were incubated for 24 h with different compounds according to the invention and NO-ASA as a control. The compounds were added in different concentrations, in particular in concentrations from 0.01-100 μM. Cell survival was assessed by AnnexinV/PI assay (Kit commercially available, e.g. by Biotium Inc, USA; or Phoenix Flow Systems, US), the results were normalized to DMSO control [vehicle] and dose response curves were calculated using a non-linear regression model.
# [2] = test system: peripheral blood mononuclear cells (PBMCs) of healthy donors; experiment: AnnexinV/PI assay on PBMCs of healthy donors; format: cell-based; settings: Homo sapiens, PBMC
# Method: as §1, §2
# [3] = test system: SW480, MelJuso, HCC44, SH2 and COLO704 cell lines; format: cell-based; settings: 24 h, 0.01-100 μM
# Method: (§3) In the following experiment the possible therapeutic window for NO-ASA derivatives was investigated. […] The melanoma cell line MelJuso, the colon carcinoma cell line SW480, the small cell lung cancer cell line HCC44, the ovarian adenocarcinoma cell line COLO704 and the acute myeloid leukemia cell line SH2 were treated with concentrations of p-NO-ASA and B9, B12 and B13 in a range between 0.01 μM and 100 μM for 24 h, followed by addition of luminogenic CellTiter-Glo® reagent.
# [4] = test system: acute myeloid leukemia cell line SH2; experiment: Annexin V/PI assay, SH2; format: cell-based; settings: 24 h
# [5] = test system: phosphorylated NFkappaBp65 protein; experiment: Western blot of NFkappaB phosphorylation status in CLL cells; format: cell-based, human; settings: 3 h; for reduction of NFkappaB activity (phosphorylated NFkappaBp65): CLL cells, 0.1, 1, 10 μM; for concentration inducing the reduction of NFkappaB p65 protein: CLL cells
# Method: CLL cells were treated with B1, B9, B12 and B13 (0.1 μM, 1 μM, 10 μM) for 3 h. Untreated and DMSO (1%) treated cells served as control. GAPDH=loading control.
# The BCR signalling pathway plays an important pathogenic role in CLL and lymphomas leading often to a constitutive active NFkappaB (in this state NFkappaB is phosphorylated). Therefore the influence of the derivatives on the phosphorylation status of NFkappaB was analyzed by Western Blot. CLL cells were treated with 0.1 μM, 1 μM or 10 μM of each derivate, respectively, for 3 h. CLL cells were treated with B1, B9, B12 and B13 (0.1 μM, 1 μM, 10 μM) for 3 h. Untreated and DMSO (1%) treated cells served as control. GAPDH=loading control.
# [6] = test system: several cancer cell lines; experiment: Apoptosis (Annexin V/PI) assay, panel of cancer cell lines; format: cell-based; settings: range over the cancer cell lines, 24 h; read-out: concentrations inducing apoptosis in different diseases (apoptosis array)
# [7] = test system: CLL cells without a TP53 mutation; experiment: FACS analysis of treated CLL cells without TP53 mutation; format: cell-based, human; settings: 24 h, 0.01-100 μM, FIG. 6
# Method: (§4) Isolated, primary CLL cells were treated for 24 h with the EC50 of the different compounds and the ATP-content was measured by flow cytometry. For each used compound the order of mean EC50 concentrations in the bar chart is from left to right as following: EC50 CLL cells TP53 unmut (unmutated=without mutation), EC50 CLL cells TP53 mut (mutated=with mutation).
# (§5) Further, the derivatives B9, B12 and B13 were tested in comparison to para-NO-ASA on CLL cells which harbour a TP53 mutation. The patient subgroup with a TP53 disruption is characterized by a considerable dismal prognosis. CLL cells of patients with and without the TP53 mutation were treated with five different concentrations (0.01, 0.1, 1, 10, 100 μM) of para-NO-ASA, B9, B12 and B13 for 24 h.
# [8] = test system: melanoma cell line MelJuso; experiment: Viability assay (ATP content, CellTiter-Glo), MelJuso; format: cell-based; settings: Homo sapiens, MEL-JUSO, 24 h
# Method: as §3
# (§6) Table accompanying Example 5. Overview of the EC50 values of cell survival analyzed by ATP content and Annexin V/PI assay. n.t.; not tested
# [9] = test system: small cell lung cancer cell line HCC44; experiment: Viability assay (ATP content, CellTiter-Glo), HCC44; format: cell-based
# Method: as §3, §6
# [10] = test system: EHEB; experiment: CellTiter-Glo ATP assay, EHEB cell line; format: cell-based; settings: 24 h, 0.01-1000 μM
# Method: (§7) Several cell lines (n=5) were treated with different concentrations of p-NO-ASA, B9, B12 and B13 ranging between 0.01 μM and 1000 μM for 24 hours followed by addition of luminogenic CellTiter-Glo®-reagent. […] For each cell line the order of used compound in the bar chart is from left to right as following: p-NO-ASA, B9, B12, B13.
# (§8) Treatment success in CLL may depend on cytogenetic and molecular parameters as for instance del13q or TP53 gene disruption. Therefore, the NO-ASA derivatives were examined on (chronic) B cell lymphoma cell lines with different geno- and phenotypes (JVM3, EHEB, U2932, MEC-1, GRANTA-519). The cells were treated with concentrations between 0.01 and 1000 μM for 24 h followed by the addition of luminogenic CellTiter-Glo® reagent.
# [11] = test system: ovarian adenocarcinoma cell line COLO704; experiment: Viability assay (ATP content, CellTiter-Glo), COLO704; format: cell-based; settings: COLO 704, 24 h
# Method: as §3, §6
# [12] = test system: ovarian adenocarcinoma cell line COLO704; experiment: Annexin V/PI assay, COLO704; format: cell-based; settings: COLO 704, 24 h
# [13] = test system: U2932; experiment: CellTiter-Glo ATP assay, U2932 cell line; format: cell-based; settings: 24 h, 0.01-1000 μM
# Method: as §7, §8
# [14] = test system: TP53-mutated CLL cells; experiment: FACS analysis of treated CLL cells with TP53 mutation; format: cell-based, human; settings: 24 h, 0.01-100 μM, FIG. 6
# Method: as §4, §5
# [15] = test system: small cell lung cancer cell line HCC44; experiment: Annexin V/PI assay, HCC44; format: cell-based; settings: Homo sapiens, HCC44, 24 h
# [16] = test system: GRANTA-519; experiment: CellTiter-Glo ATP assay, GRANTA-519 cell line; format: cell-based; settings: Homo sapiens, Granta-519; 24 h, CellTiter-Glo
# Method: as §7, §8
# [17] = test system: melanoma cell line MelJuso; experiment: Annexin V/PI assay, MelJuso; format: cell-based; settings: Homo sapiens, MEL-JUSO, 24 h
# [18] = test system: MEC-1; experiment: CellTiter-Glo ATP assay, MEC-1 cell line; format: cell-based; settings: Homo sapiens, MEC1; 24 h, CellTiter-Glo
# Method: as §7, §8
# [19] = test system: acute myeloid leukemia cell line SH2; experiment: Viability assay (ATP content, CellTiter-Glo), SH2; format: cell-based; settings: 24 h
# Method: as §3, §6
# [20] = test system: colon carcinoma cell line SW480; experiment: cells; format: cell-based; settings: Homo sapiens, SW480, 24 h, read-out: Viability assay EC50, SW480
# Method: The cell lines (n=5) were treated with different concentrations of p-NO-ASA, B9, B12 and B13 ranging between 0.01 μM and 100 μM for 24 hours followed by addition of luminogenic CellTiter-Glo®-reagent (see Example 5).
# as §3, §6
# [21] = test system: JVM-3; experiment: CellTiter-Glo ATP assay, JVM-3 cell line; format: cell-based, human; settings: 24 h, 0.01-1000 μM
# Method: as §7, §8
# [22] = 24 h incubation, 0.01-100 μM, 5*10^6 cells/ml, normalized to DMSO control
# [23] = 24 h incubation, 0.01-100 μM, 5*10^6 cells/ml, normalized to DMSO control, read-out: AnnexinV/PI assay EC50 PBMCs
# [24] = 24 h incubation, value extrapolated beyond tested 0.01-100 μM, read-out: AnnexinV/PI assay EC50 PBMCs (* = extrapolated)
smiles,measurement,setting,value
"CC(=O)Oc1ccc(C)cc1C(=O)Oc1ccc(CO[N+](=O)[O-])cc1 [B2, 4-((nitrooxy)methyl)phenyl 2-actetoxy-5-methylbenzoate]",EC50,[1]; [22],4.75 µM
same,EC50,[2]; [23],48.5 µM
"CC(=O)Oc1cc(C)ccc1C(=O)Oc1ccc(CO[N+](=O)[O-])cc1 [B3, 4-((nitrooxy)methyl)phenyl 2-actetoxy-4-methylbenzoate]",EC50,[1]; [22],4 µM
same,EC50,[2]; [23],55.1 µM
"O=C(Oc1ccc(CO)cc1)c1cc(C(F)(F)F)ccc1Cl [B5, 4-(hydroxymethyl)phenyl 2-chloro-5-(trifluoromethyl)benzoate]",EC50,[1]; [22],37.2 µM
same,EC50,[2]; [24],108 µM
"O=C(Oc1ccc(CO[N+](=O)[O-])cc1)c1cc(C(F)(F)F)ccc1Cl [B6, 4-((nitrooxy)methyl)phenyl 2-chloro-5-(trifluoromethyl)benzoate]",EC50,[1]; [22],4.42 µM
same,EC50,[2]; [23],73.9 µM
"CC(C)(C)[Si](C)(C)OCc1ccc(OC(=O)c2ccccc2)cc1 [B7, 4-(((tert-butyldimethylsilyl)oxy)methyl)phenyl benzoate]",EC50,[1]; [22],52.8 µM
same,EC50,[2]; [24],203 µM
"O=C(Oc1ccc(CO)cc1)c1ccccc1 [B8, 4-(hydroxymethyl)phenyl benzoate]",EC50,[1]; [22],57.3 µM
"O=COCc1ccc(OC(=O)c2ccccc2)cc1 [B10, 4-((formyloxy)methyl)phenyl benzoate]",EC50,[1]; [22],79.4 µM
same,EC50,[2]; [24],859 µM
"COc1cc(CO[N+](=O)[O-])ccc1OC(=O)c1ccccc1 [B11, 2-methoxy-4-((nitrooxy)methyl)phenyl benzoate]",EC50,[1]; 24 h,14.7 µM
same,EC50,"[2]; 24 h, read-out: AnnexinV/PI assay EC50 PBMCs",24.4 µM
"O=C(Oc1ccc(CCl)cc1)c1ccccc1 [B12, 4-(chloromethyl)phenyl benzoate]","ATP content in SW480, MelJuso, HCC44, SH2 and COLO704 cell lines",[3],reduced ATP content
same,EC50,[4],1.68 µM
same,reduction of NFkappaB activity (phosphorylated NFkappaBp65),[5],concentration dependent reduction
same,concentration inducing the reduction of NFkappaB p65 protein,[5],10 µM
same,EC50,[6],1 to 5 µM
same,effect on CLL cells without a TP53 mutation,[7],great effect
same,selectivity for CLL cells compared to PBMCs,[1]; 24 h,selective for CLL cells
same,EC50,[1]; [22],1.33 µM
same,EC50,[8],0.54 µM
same,EC50,[9]; 24 h,1.03 µM
same,EC50,"[9]; Homo sapiens, HCC44, 24 h",1.05 µM
same,ATP content in EHEB,[10],reduced ATP content
same,EC50,[11],2.77 µM
same,EC50,[12],1.8 µM
same,ATP content in U2932,[13],reduced ATP content
same,effect on TP53-mutated CLL cells in comparison to para-NO-ASA (B1),[14],more effective
same,EC50,[15],7.35 µM
same,EC50,[16],0.68 µM
same,EC50,[17],4.79 µM
same,EC50,[18],3.24 µM
same,EC50,[19],0.01 µM
same,EC50,[20],130 µM
same,ATP content in JVM-3,[21],reduced ATP content
same,EC50,[2]; [23],35 µM
"O=C(Oc1ccc(CO[N+](=O)[O-])cc1)c1cccc2ccccc12 [B13, 4-((nitrooxy)methyl)phenyl 1-naphthoate]","ATP content in SW480, MelJuso, HCC44, SH2 and COLO704 cell lines",[3],reduced ATP content
same,EC50,[4],6.95 µM
same,reduction of NFkappaB activity (phosphorylated NFkappaBp65),[5],concentration dependent reduction
same,concentration inducing the reduction of NFkappaB p65 protein,[5],10 µM
same,EC50,[6],7 to 57 µM
same,selectivity for CLL cells compared to PBMCs,[1]; 24 h,selective for CLL cells
same,EC50,[1]; [22],1.04 µM
same,EC50,[8],4.79 µM
same,EC50,"[9]; Homo sapiens, HCC44, 24 h",1.68 µM
same,ATP content in EHEB,[10],reduced ATP content
same,EC50,[11],7.86 µM
same,EC50,[12],53.7 µM
same,ATP content in U2932,[13],reduced ATP content
same,effect on TP53-mutated CLL cells in comparison to para-NO-ASA (B1),[14],more effective
same,EC50,[15],37.9 µM
same,EC50,[16],19.7 µM
same,EC50,[17],57.5 µM
same,EC50,[18],24.1 µM
same,EC50,[19],0.64 µM
same,EC50,[20],190 µM
same,ATP content in JVM-3,[21],reduced ATP content
same,EC50,[2]; [23],52.7 µM
"O=C(Oc1ccc(CO[N+](=O)[O-])cc1)C1CCCCC1 [B14, 4-((nitrooxy)methyl)phenyl cyclohexane carboxylate]",EC50,[1]; [22],3.31 µM
same,EC50,[2]; [23],20.2 µM
"Nc1cccc2c(S(=O)(=O)Oc3ccc(CO[N+](=O)[O-])cc3)cccc12 [B16, 4-((nitrooxy)methyl)phenyl 5-aminonaphthalene-1-sulfonate]",EC50,[1]; [22],82.4 µM
same,EC50,[2]; [24],370 µM
"COc1ccccc1C(=O)Oc1ccc(CO[N+](=O)[O-])cc1 [B18, 4-((nitrooxy)methyl)phenyl 2-methoxybenzoate]",EC50,[1]; [22],26 µM
"C#Cc1cc(CO[N+](=O)[O-])ccc1OC(=O)c1ccccc1 [B20, 2-ethynyl-4-((nitrooxy)methyl)phenyl benzoate]",EC50,[1]; [22],21.8 µM
same,EC50,[2]; [24],308 µM
